Reference: US12344600B2, “c-Myc mRNA translation modulators and uses thereof in the treatment of cancer” (Anima Biotech Inc., priority 2022, dated 2025)

System: c-Myc
Assay: c-Myc immunofluorescence assay
Type: cell-based, human
Details: A549 cells, 24 hours, anti-c-Myc immunofluorescence
Method in brief: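 A549 NSCLC cells grown 48 h, then treated 24 h with increasing compound concentrations; fixed in 4% paraformaldehyde, stained with anti-c-Myc antibody plus fluorescent secondary and DAPI. Per-cell c-Myc fluorescence quantified by high-content imaging at 20×; dose-response fitted by logistic regression to give EC50.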

Structure (SMILES): COc1ccc(-c2noc(N3CCC(C(=O)NCC(O)Cc4ccccc4)CC3)n2)cc1 (stereo not shown) [Compound 305, N-(2-hydroxy-3-phenylpropyl)-1-(3-(4-methoxyphenyl)-1,2,4-oxadiazol-5-yl)piperidine-4-carboxamide]
- Myc Efficacy (−LogEC50): + (+ >3 and <5)

Structure (SMILES): COc1ccc(-c2noc(N3CCC(C(=O)Nc4ccc(C5COC5)cc4)CC3)n2)cc1 [Compound 306, 1-(3-(4-methoxyphenyl)-1,2,4-oxadiazol-5-yl)-N-(4-(oxetan-3-yl)phenyl)piperidine-4-carboxamide]
- Myc Efficacy (−LogEC50): + (+ >3 and <5)

Structure (SMILES): COc1ccc(-c2noc(N3CCC(C(=O)NCC4(c5ccc(F)cc5F)CC4)CC3)n2)cc1 [Compound 307, N-((1-(2,4-difluorophenyl)cyclopropyl)methyl)-1-(3-(4-methoxyphenyl)-1,2,4-oxadiazol-5-yl)piperidine-4-carboxamide]
- Myc Efficacy (−LogEC50): + (+ >3 and <5)

Structure (SMILES): COc1ccc(-c2noc(N3CCC(C(=O)NCc4ccc(OC)c(C(F)(F)F)c4)CC3)n2)cc1 [Compound 308, N-(4-methoxy-3-(trifluoromethyl)benzyl)-1-(3-(4-methoxyphenyl)-1,2,4-oxadiazol-5-yl)piperidine-4-carboxamide]
- Myc Efficacy (−LogEC50): + (+ >3 and <5)

Structure (SMILES): COc1ccc(-c2noc(N3CCC(C(=O)NCCc4cccc(C(F)(F)F)n4)CC3)n2)cc1 [Compound 309, 1-(3-(4-methoxyphenyl)-1,2,4-oxadiazol-5-yl)-N-(2-(6-(trifluoromethyl)pyridin-2-yl)ethyl)piperidine-4-carboxamide]
- Myc Efficacy (−LogEC50): − (− ≤3)

Structure (SMILES): COc1ccc(-c2noc(N3CCC(C(=O)NC(C)Cc4c[nH]c5ccccc45)CC3)n2)cc1 (stereo not shown) [Compound 310, N-(1-(1H-indol-3-yl)propan-2-yl)-1-(3-(4-methoxyphenyl)-1,2,4-oxadiazol-5-yl)piperidine-4-carboxamide]
- Myc Efficacy (−LogEC50): + (+ >3 and <5)

Structure (SMILES): COc1ccc(-c2noc(N3CCC(C(=O)NCc4cc(C)ccc4F)CC3)n2)cc1 [Compound 311, N-(2-fluoro-5-methylbenzyl)-1-(3-(4-methoxyphenyl)-1,2,4-oxadiazol-5-yl)piperidine-4-carboxamide]
- Myc Efficacy (−LogEC50): − (− ≤3)

Structure (SMILES): COc1ccc(-c2noc(N3CCC(C(=O)NC4CCC5(CCOCC5)CC4)CC3)n2)cc1 [Compound 312, 1-(3-(4-methoxyphenyl)-1,2,4-oxadiazol-5-yl)-N-(3-oxaspiro[5.5]undecan-9-yl)piperidine-4-carboxamide]
- Myc Efficacy (−LogEC50): + (+ >3 and <5)

Structure (SMILES): COc1ccc(-c2noc(N3CCC(C(=O)NC(C)C4CCCCO4)CC3)n2)cc1 (stereo not shown) [Compound 313, 1-(3-(4-methoxyphenyl)-1,2,4-oxadiazol-5-yl)-N-(1-(tetrahydro-2H-pyran-2-yl)ethyl)piperidine-4-carboxamide]
- Myc Efficacy (−LogEC50): − (− ≤3)

Structure (SMILES): COc1ccc(-c2noc(N3CCC(C(=O)NCCN(C)C4CC4)CC3)n2)cc1 [Compound 314, N-(2-(cyclopropyl(methyl)amino)ethyl)-1-(3-(4-methoxyphenyl)-1,2,4-oxadiazol-5-yl)piperidine-4-carboxamide]
- Myc Efficacy (−LogEC50): + (+ >3 and <5)

Structure (SMILES): COc1ccc(-c2noc(N3CCC(C(=O)N[C@@H](CCO)C(C)C)CC3)n2)cc1 [Compound 315, (S)-N-(1-hydroxy-4-methylpentan-3-yl)-1-(3-(4-methoxyphenyl)-1,2,4-oxadiazol-5-yl)piperidine-4-carboxamide]
- Myc Efficacy (−LogEC50): + (+ >3 and <5)

Structure (SMILES): COc1ccc(-c2noc(N3CCC(C(=O)N[C@H]4CCN(Cc5ccccc5)C4)CC3)n2)cc1 [Compound 316, (S)-N-(1-benzylpyrrolidin-3-yl)-1-(3-(4-methoxyphenyl)-1,2,4-oxadiazol-5-yl)piperidine-4-carboxamide]
- Myc Efficacy (−LogEC50): + (+ >3 and <5)

Structure (SMILES): COc1ccc(-c2noc(N3CCC(C(=O)NCCc4c[nH]c5cc(C)ccc45)CC3)n2)cc1 [Compound 317, 1-(3-(4-methoxyphenyl)-1,2,4-oxadiazol-5-yl)-N-(2-(6-methyl-1H-indol-3-yl)ethyl)piperidine-4-carboxamide]
- Myc Efficacy (−LogEC50): ++ (++ ≥5 and <6)

Structure (SMILES): COc1ccc(-c2noc(N3CCC(C(=O)NCc4cnc(C(F)(F)F)s4)CC3)n2)cc1 [Compound 318, 1-(3-(4-methoxyphenyl)-1,2,4-oxadiazol-5-yl)-N-((2-(trifluoromethyl)thiazol-5-yl)methyl)piperidine-4-carboxamide]
- Myc Efficacy (−LogEC50): + (+ >3 and <5)

Structure (SMILES): COc1ccc(-c2noc(N3CCC(C(=O)Nc4cc(Cl)c(Cl)cn4)CC3)n2)cc1 [Compound 319, N-(4,5-dichloropyridin-2-yl)-1-(3-(4-methoxyphenyl)-1,2,4-oxadiazol-5-yl)piperidine-4-carboxamide]
- Myc Efficacy (−LogEC50): + (+ >3 and <5)

Structure (SMILES): COc1ccc(-c2noc(N3CCC(C(=O)NCC4CCN(Cc5ccco5)C4)CC3)n2)cc1 (stereo not shown) [Compound 320, N-((1-(furan-2-ylmethyl)pyrrolidin-3-yl)methyl)-1-(3-(4-methoxyphenyl)-1,2,4-oxadiazol-5-yl)piperidine-4-carboxamide]
- Myc Efficacy (−LogEC50): + (+ >3 and <5)

Structure (SMILES): COc1ccc(-c2noc(N3CCC(C(=O)NCC4CCN(Cc5ccccc5O)C4)CC3)n2)cc1 (stereo not shown) [Compound 321, N-((1-(2-hydroxybenzyl)pyrrolidin-3-yl)methyl)-1-(3-(4-methoxyphenyl)-1,2,4-oxadiazol-5-yl)piperidine-4-carboxamide]
- Myc Efficacy (−LogEC50): ++ (++ ≥5 and <6)

Structure (SMILES): COc1ccc(-c2noc(N3CCC(C(=O)NCC4CCN(Cc5ccncc5)C4)CC3)n2)cc1 (stereo not shown) [Compound 322, 1-(3-(4-methoxyphenyl)-1,2,4-oxadiazol-5-yl)-N-((1-(pyridin-4-ylmethyl)pyrrolidin-3-yl)methyl)piperidine-4-carboxamide]
- Myc Efficacy (−LogEC50): ++ (++ ≥5 and <6)

Structure (SMILES): COc1ccc(-c2noc(N3CCC(C(=O)NCC4CCN(CC5CCCC5)C4)CC3)n2)cc1 (stereo not shown) [Compound 323, N-((1-(cyclopentylmethyl)pyrrolidin-3-yl)methyl)-1-(3-(4-methoxyphenyl)-1,2,4-oxadiazol-5-yl)piperidine-4-carboxamide]
- Myc Efficacy (−LogEC50): ++ (++ ≥5 and <6)

Structure (SMILES): C#Cc1cccc(CN2CCC(CNC(=O)C3CCN(c4nc(-c5ccc(OC)cc5)no4)CC3)C2)c1 (stereo not shown) [Compound 324, N-((1-(3-ethynylbenzyl)pyrrolidin-3-yl)methyl)-1-(3-(4-methoxyphenyl)-1,2,4-oxadiazol-5-yl)piperidine-4-carboxamide]
- Myc Efficacy (−LogEC50): ++ (++ ≥5 and <6)

Structure (SMILES): COc1ccc(-c2noc(N3CCC(C(=O)NCC4CCN(Cc5cc[nH]c5)C4)CC3)n2)cc1 (stereo not shown) [Compound 325, N-((1-((1H-pyrrol-3-yl)methyl)pyrrolidin-3-yl)methyl)-1-(3-(4-methoxyphenyl)-1,2,4-oxadiazol-5-yl)piperidine-4-carboxamide]
- Myc Efficacy (−LogEC50): + (+ >3 and <5)

Structure (SMILES): COc1ccc(-c2noc(N3CCC(C(=O)NCC4CCN(Cc5cc(C)ccn5)C4)CC3)n2)cc1 (stereo not shown) [Compound 326, 1-(3-(4-methoxyphenyl)-1,2,4-oxadiazol-5-yl)-N-((1-((4-methylpyridin-2-yl)methyl)pyrrolidin-3-yl)methyl)piperidine-4-carboxamide]
- Myc Efficacy (−LogEC50): ++ (++ ≥5 and <6)

Structure (SMILES): COc1ccc(-c2noc(N3CCC(C(=O)NCC4CCN(CC(C)(C)C)C4)CC3)n2)cc1 (stereo not shown) [Compound 327, 1-(3-(4-methoxyphenyl)-1,2,4-oxadiazol-5-yl)-N-((1-neopentylpyrrolidin-3-yl)methyl)piperidine-4-carboxamide]
- Myc Efficacy (−LogEC50): + (+ >3 and <5)

Structure (SMILES): COc1ccc(-c2noc(N3CCC(C(=O)NCC4CCN(Cc5ccccc5C)C4)CC3)n2)cc1 (stereo not shown) [Compound 328, 1-(3-(4-methoxyphenyl)-1,2,4-oxadiazol-5-yl)-N-((1-(2-methylbenzyl)pyrrolidin-3-yl)methyl)piperidine-4-carboxamide]
- Myc Efficacy (−LogEC50): ++ (++ ≥5 and <6)

Structure (SMILES): COc1ccc(-c2noc(N3CCC(C(=O)NCC4CCN(Cc5cnccc5C)C4)CC3)n2)cc1 (stereo not shown) [Compound 329, 1-(3-(4-methoxyphenyl)-1,2,4-oxadiazol-5-yl)-N-((1-((4-methylpyridin-3-yl)methyl)pyrrolidin-3-yl)methyl)piperidine-4-carboxamide]
- Myc Efficacy (−LogEC50): + (+ >3 and <5)

Structure (SMILES): COc1ccc(-c2noc(N3CCC(C(=O)NCC4CCN(Cc5ccoc5)C4)CC3)n2)cc1 (stereo not shown) [Compound 330, N-((1-(furan-3-ylmethyl)pyrrolidin-3-yl)methyl)-1-(3-(4-methoxyphenyl)-1,2,4-oxadiazol-5-yl)piperidine-4-carboxamide]
- Myc Efficacy (−LogEC50): + (+ >3 and <5)

Structure (SMILES): COc1ccc(-c2noc(N3CCC(C(=O)NCC4CCN(Cc5ccc(F)cc5)C4)CC3)n2)cc1 (stereo not shown) [Compound 331, N-((1-(4-fluorobenzyl)pyrrolidin-3-yl)methyl)-1-(3-(4-methoxyphenyl)-1,2,4-oxadiazol-5-yl)piperidine-4-carboxamide]
- Myc Efficacy (−LogEC50): ++ (++ ≥5 and <6)

Structure (SMILES): COc1ccc(-c2noc(N3CCC(C(=O)NCC4CCN(Cc5cccc(F)c5)C4)CC3)n2)cc1 (stereo not shown) [Compound 332, N-((1-(3-fluorobenzyl)pyrrolidin-3-yl)methyl)-1-(3-(4-methoxyphenyl)-1,2,4-oxadiazol-5-yl)piperidine-4-carboxamide]
- Myc Efficacy (−LogEC50): ++ (++ ≥5 and <6)

Structure (SMILES): COc1ccc(-c2noc(N3CCC(C(=O)NCC4CCN(Cc5cncc(F)c5)C4)CC3)n2)cc1 (stereo not shown) [Compound 333, N-((1-((5-fluoropyridin-3-yl)methyl)pyrrolidin-3-yl)methyl)-1-(3-(4-methoxyphenyl)-1,2,4-oxadiazol-5-yl)piperidine-4-carboxamide]
- Myc Efficacy (−LogEC50): + (+ >3 and <5)

Structure (SMILES): COc1ccc(-c2noc(N3CCC(C(=O)NCC4CCN(Cc5ncccc5F)C4)CC3)n2)cc1 (stereo not shown) [Compound 334, N-((1-((3-fluoropyridin-2-yl)methyl)pyrrolidin-3-yl)methyl)-1-(3-(4-methoxyphenyl)-1,2,4-oxadiazol-5-yl)piperidine-4-carboxamide]
- Myc Efficacy (−LogEC50): + (+ >3 and <5)

Structure (SMILES): COc1ccc(-c2noc(N3CCC(C(=O)NCC4CCN(Cc5ccc(F)cn5)C4)CC3)n2)cc1 (stereo not shown) [Compound 335, N-((1-((5-fluoropyridin-2-yl)methyl)pyrrolidin-3-yl)methyl)-1-(3-(4-methoxyphenyl)-1,2,4-oxadiazol-5-yl)piperidine-4-carboxamide]
- Myc Efficacy (−LogEC50): ++ (++ ≥5 and <6)
